IC50 data for two compounds are collected here from patent publication US8076514B2, “Phenyl compounds and their use in the treatment of Type II diabetes” (Eli Lilly and Company, priority 2005, dated 2011).

What is called pIC50 is −log10 of the IC50, conventionally taken in molar units.

This assay deals with T1, human recombinant DPIV enzyme (Homo sapiens, UniProt P27487).
T1 construct: Secreted DPIV (lacking membrane anchor) is enriched from HEK293 cell culture supernatant; made in house; host or cells: HEK293
The experiment in a line: Human Recombinant DPIV Activity Assay (fluorometric end point, Gly-Pro-AMC substrate). To be noted: enriched human recombinant DPIV, Gly-Pro-AMC 0.02 mM, 12 points concentration response curve. It counts as biochemical. Here is the method:
Human Recombinant DPIV Activity Assay The DPIV assay uses a fluorometric end point assay (excitation 355 nm; emission 460 nm), enriched human recombinant DPIV enzyme (21.3 μU/μl), and Gly-Pro-AMC (Bachem I-1225) as substrate (0.02 mM). Secreted DPIV (lacking membrane anchor) is enriched from HEK293 cell culture supernatant by ultrafiltration, ultra-centrifugation, and size-exclusion chromatography. IC50 values of the compounds are calculated based on a 12 points concentration response curve. Each concentration is measured in duplicate. The assay is validated by plate variability and conformity, inter-plate variability, signal window, and minimum significant ration of IC50. A MSR is calculated based on a test/retest analysis and a retrospective analysis. The MSR value is 1.8.

pIC50: −log10 of the molar value. Counter-ions that a name gives are not always drawn.

T1 sequence (P27487 29-766 limits assumed): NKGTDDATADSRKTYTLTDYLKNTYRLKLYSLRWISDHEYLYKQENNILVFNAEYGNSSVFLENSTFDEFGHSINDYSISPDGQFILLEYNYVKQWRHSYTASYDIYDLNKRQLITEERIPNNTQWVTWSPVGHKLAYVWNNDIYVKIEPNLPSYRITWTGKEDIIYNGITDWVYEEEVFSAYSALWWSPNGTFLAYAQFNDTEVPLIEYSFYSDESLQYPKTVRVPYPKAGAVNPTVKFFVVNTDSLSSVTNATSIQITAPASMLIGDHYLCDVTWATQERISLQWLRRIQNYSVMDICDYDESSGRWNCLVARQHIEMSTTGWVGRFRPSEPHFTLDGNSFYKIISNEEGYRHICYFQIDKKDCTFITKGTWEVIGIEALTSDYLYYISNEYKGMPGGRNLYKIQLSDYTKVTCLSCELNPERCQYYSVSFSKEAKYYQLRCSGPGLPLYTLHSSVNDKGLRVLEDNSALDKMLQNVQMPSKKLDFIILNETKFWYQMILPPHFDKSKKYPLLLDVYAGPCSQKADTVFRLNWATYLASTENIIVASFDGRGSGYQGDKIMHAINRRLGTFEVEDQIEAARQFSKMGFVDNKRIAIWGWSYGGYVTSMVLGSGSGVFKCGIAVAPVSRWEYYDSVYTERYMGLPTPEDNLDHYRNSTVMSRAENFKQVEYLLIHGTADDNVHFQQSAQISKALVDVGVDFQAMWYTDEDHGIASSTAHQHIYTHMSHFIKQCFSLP

Consider `CC(C)(C)NC(=O)c1cc(Cl)ccc1C[C@H](O)[C@H](N)Cc1ccccc1F` [Example 7, 2-[(2S,3R)-3-Amino-4-(2-fluoro-phenyl)-2-hydroxy-butyl]-N-tert-butyl-5-chloro-benzamide Hydrochloride], for which the negative logarithm of the IC50 (pIC50) is 6.87.

Consider `COc1ccc(C(=O)NC(C)(C)C)c(C[C@H](O)[C@H](N)Cc2ccccc2F)c1` [Example 6, 2-[(2S,3R)-3-Amino-4-(2-fluoro-phenyl)-2-hydroxy-butyl]-N-tert-butyl-4-methoxy-benzamide Hydrochloride], for which the negative-log IC50 (pIC50) is 7.01.
